Each structure is given as a SMILES string.

This is an account of results in article PMC9101764, “Synthesis and In Vitro Characterization of Selective Cannabinoid CB2 Receptor Agonists: Biological Evaluation against Neuroblastoma Cancer Cells” (Molecules, 2022).

For one assay, the target named is T1, hCB1R (Homo sapiens, UniProt P21554).
T1 construct: expressed in transfected cells; host or cells: CHO cells (membranes)
Kind of assay: [3H]CP55,940 radioligand displacement assay, CHO cell membranes. The assay is classed as binding. As to the method: CHO cells stably expressing hCB1R or hCB2R were maintained at 37 °C and 5% CO2 in Gibco Ham’s F-12 nutrient mix (Fisher Scientific, Loughborough, UK ) supplemented with 2 mM L-glutamine, 10% fetal bovine serum (FBS), 0.6% penicillin−streptomycin (Fisher Scientific, Loughborough UK), and the disulfate salt of geneticin (G418) as previously described (Sigma-Aldrich, Poole, UK). For subsequent radioligand displacement assays, membranes were prepared by scraping cells from flasks, centrifuging the cells, and storing the cell pellet at −20 °C. When required for us, cell pellets were defrosted and diluted in tris buffer (50 mM Tris-HCl and 50 mM Tris-base). As we have described in previous studies, HitHunter (cAMP) and PathHunter (βarrestin2) CHO-K1 cells stably expressing hCB1R or hCB2R from DiscoveRx® (Eurofins, Fremont, CA, USA) were maintained at 37 °C, 5% CO2 in F-12 DMEM containing 10% FBS and 1% Pen/Strep with 800 µg/mL geneticin (HitHunter) or 800 µg/mL G418 and 300 µg/mL hygromycin B (PathHunter).
We have previously described radioligand displacement assays in detail. […] Binding reactions were terminated by ice-cold tris binding buffer and subsequent vacuum filtration (24-well sampling manifold (Brandel cell harvester; Brandel Inc., Gaithersburg, MD, USA)) using Brandel GF/B filters soaked in wash buffer at 4 °C for at least 24 h. Filters were washed with 1.2 mL of tris-binding buffer six times, then oven-dried for 60 min before being incubated in 3 mL of scintillation fluid (Ultima Gold XR, PerkinElmer, Seer Green, Buckinghamshire, UK). Radioactivity was quantified by liquid scintillation spectrometry. All compounds were first prepared at 10 mM solutions in DMSO. The final vehicle concentration for assays was 0.1% DMSO. All assays were performed in duplicate.
Estimates of Ki, EC50, and Emax were determined using non-linear regression three-parameters (GraphPad, Prism, v. 9.0).

Another assay has as its system SH-SY5Y cells. Nature of the assay: Sulforhodamine B (SRB) cell viability assay. The class given is cell-based, human. As to the method:
We tested the anti-proliferative activity of the novel CB2R agonists FG158a, FG160a, FG161a, and LV62 in neuroblastoma cell lines (Figure 4). The compounds were assayed as a mixture of cis and trans isomers. […] After 72 h of treatment, the effect was higher and could also be observed at lower concentrations. The inhibitory effect was confirmed in another neuroblastoma cell line, SK-N-BE cells.
Human neuroblastoma SHSY5Y and SK-N-BE cell lines were grown in DMEM (GIBCO, Paisley, UK) and MEM (Sigma-Aldrich, St.Louis, MO, USA), respectively, supplemented with 2 mM l-glutamine, […], 50 units/mL penicillin and 10% heat-inactivated fetal bovine serum (FBS) in a humidified atmosphere (5% CO2 at 37 °C). Cells were detached as previously described with 0.25% trypsin (Sigma-Aldrich) at 70–80% confluence.
Cells seeded for 24 h in triplicate in 96-well plates at a density of 8000 cells/well were left to adhere overnight. CB2R agonists were added to the culture in triplicate at concentrations ranging from 2.5–40 µM. After 24 h, 48 h, and 72 h, cells were fixed, shaking for 2 h at 4 °C with 50% v/v trichloroacetic acid and washed with distilled water. Cells left overnight to dry were stained with 0.4% w/v SRB in 1% v/v acetic acid (at room temperature for 30 min on a shaker) and then washed with 1% acetic acid to allow for the removal of the unbound dye. TRIS-HCl 10 mM, pH 7.4 was added to the cells and absorbance was measured at 495 nm as previously shown using a Glomax® Discover Microplate Reader (Promega, Madison, WI, USA). In combinatory assays, similar procedures were adopted and the CB2R antagonist SR144528 (1 µM) was added 1 h before the CB2 agonists (10, 20 and 40 µM) to SHSY5Y cells that were harvested as described above after 72 h of incubation.
Figure 4 Inhibition of cell viability. The effect on cell viability by CB2R agonists was determined by sulforhodamine B (SRB) assays in SH-SY5Y and SK-N-BE cell lines. SH-SY5Y cells were treated with the compounds indicated in the figure for 24 h (A), 48 h (B), and 72 h (C) at the concentrations reported in the histograms. SK-N-BE cells were treated with the same compounds for 72 h (D). Figures report cell viability (mean of at least 3 independent experiments ± SEM) as percent of cell survival vs. untreated cells (considered as 100% of survival). […] The statistical significance was calculated with two-way ANOVA using Dunnett’s multiple comparisons test.

T1 sequence (P21554 whole entry): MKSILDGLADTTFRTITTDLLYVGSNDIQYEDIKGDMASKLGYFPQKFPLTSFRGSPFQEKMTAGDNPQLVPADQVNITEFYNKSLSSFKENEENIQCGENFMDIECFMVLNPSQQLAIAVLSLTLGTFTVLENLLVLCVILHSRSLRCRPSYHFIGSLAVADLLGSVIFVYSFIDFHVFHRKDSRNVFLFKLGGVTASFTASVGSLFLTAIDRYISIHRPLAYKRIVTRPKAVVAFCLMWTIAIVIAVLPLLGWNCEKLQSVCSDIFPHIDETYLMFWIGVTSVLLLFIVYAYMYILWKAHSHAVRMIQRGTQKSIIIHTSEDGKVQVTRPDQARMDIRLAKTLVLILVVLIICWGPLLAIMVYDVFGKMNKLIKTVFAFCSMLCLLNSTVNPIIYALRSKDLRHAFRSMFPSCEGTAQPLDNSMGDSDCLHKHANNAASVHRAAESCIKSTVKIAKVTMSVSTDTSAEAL

At hCB1R, `CC1CCC(NC(=O)c2cc3cccnc3n(CCCCCBr)c2=O)CC1` (stereo not shown) [FG158a, 1-(5-bromopentyl)-N-(4-methylcyclohexyl)-2-oxo-1,2-dihydro-1,8-naphthyridine-3-carboxamide] displayed an inhibition constant Ki above 10 µM. For the same compound, the “displacement of [3H]CP55,940 at hCB1R” value at hCB1R (CHO membranes, 0.1 nM-10 μM compounds) was “not able to displace [^3H]CP55,940”. For the same compound, in the assay on SH-SY5Y cells (24 h, 48 h and 72 h, 2.5–40 µM), the “effect on cell viability” value is “inhibited cell viability”. Besides, the IC50 in the assay with SH-SY5Y cells (Homo sapiens, 72 h of treatment, SRB, cis/trans mixture) was 11.8 µM.
